Source: patent publication US6376224B1, “Pharmaceutical compositions for eliminating membrane-mediated cell resistance” (Deutsches Krebsforschungszentrum Stiftung des Offentlichen …, priority 1997, dated 2002)
Where two headings read alike, the source gives them in different places.

Experiments:
[1] = system: KBC5-8 variant (P-glycoprotein-mediated multi-chemoresistance); test: Growth inhibition of multi-chemoresistant KBC5-8 cells after drug incubation and laser exposure; type: cell-based, human; details: read-out: 50% inhibitory concentration (cell growth)
Procedure: (§1) In addition, chemosensitive KB cells (human carcinoma cells) were compared with their chemoresistant KBC5-8 variant. The multi-chemoresistance of the latter is also P-glycoprotein-mediated and was induced experimentally by colchicine addition to the cell culture medium. Before the experiment started, the human carcinoma cells were typsinized and suspended in fresh cell culture medium.
(§2) Then, the cells were incubated with graded concentrations of vinblastin and napavin (photoactivity-labeled cytostatic agent). […] The mouse ascites cells were incubated with these pharmacetuical agents for five minutes. The human tumor cells were incubated for ten minutes. Then, the cell suspensions were transferred by pipetting into plastic dishes or trays and exposed using an argon laser (457.8 nm, 48 mW/cm^2) at room temperature for 1 minute. Thereafter, the cells were washed with fresh cell culture medium twice and cultured in 24-well multidishes or multitrays for three days. At the end of the experiment, cell growth was measured and the 50% inhibitory concentration of the cytostatic agents vinblastin and napavin was determined graphically as usual.

[2] = system: mouse ascites cells (strain SR, P-glycoprotein-mediated multi-chemoresistance); test: Growth inhibition of multi-chemoresistant mouse ascites cells SR after drug incubation and laser exposure; type: cell-based; details: for IC50: read-out: 50% inhibitory concentration (cell growth); for 50% growth inhibition concentration in SR relative to wild-type (HD34K) concentration: absence of verapamil
Procedure: (§3) Chemosensitive mouse ascites cells (strain HD34K) were compared with their variant (strain SR) which distinuishes itself by P-glycoprotein-mediated multi-chemoresistance. The chemoresistance of the SR cells developed spontaneously. The mouse ascites cells were suspended in fresh cell culture medium before the experiment started.
(§4) All of the experiments were carried out under flavin-protecting test conditions (Granzow et al., Cancer Res. 55, 4837-4843, (1995)). Freshly prepared cell suspensions were previously incubated at 36.5° C. for 15 minutes. Then, the cells were incubated with graded concentrations of vinblastin and napavin (photoactivity-labeled cytostatic agent). […] The mouse ascites cells were incubated with these pharmacetuical agents for five minutes. The human tumor cells were incubated for ten minutes. Then, the cell suspensions were transferred by pipetting into plastic dishes or trays and exposed using an argon laser (457.8 nm, 48 mW/cm^2) at room temperature for 1 minute. Thereafter, the cells were washed with fresh cell culture medium twice and cultured in 24-well multidishes or multitrays for three days. At the end of the experiment, cell growth was measured and the 50% inhibitory concentration of the cytostatic agents vinblastin and napavin was determined graphically as usual.

[3] = system: KB cells (human carcinoma cells); test: Growth inhibition of chemosensitive KB cells after drug incubation and laser exposure; type: cell-based; details: for IC50: KB (w.t.), 10 min incubation, 3 days culture, read-out: 50% inhibitory concentration (cell growth)
Procedure: as §1, §2

[4] = system: mouse ascites cells (strain HD34K); test: Growth inhibition of chemosensitive mouse ascites cells HD34K after drug incubation and laser exposure; type: cell-based; details: HD34K (w.t.), 5 min incubation, argon laser 1 min, 3 days culture; for IC50: read-out: 50% inhibitory concentration (cell growth)
Procedure: as §3, §4

[5] = no verapamil, argon laser 457.8 nm 1 min

napavin
IC50 ([1]; KBC5-8 (mdr), + 1 μM verapamil, 10 min incubation, argon laser 1 min, 3 days culture): 1000 nM | IC50 ([1]; KBC5-8 (mdr), + 2 μM verapamil, 10 min incubation, argon laser 1 min, 3 days culture): 350 nM | IC50 ([1]; KBC5-8 (mdr), no verapamil, 10 min incubation, argon laser 1 min, 3 days culture): 3800 nM | IC50 ([2]; SR (mdr), + 1 μM verapamil, 5 min incubation, argon laser 1 min, 3 days culture): 900 nM | IC50 ([2]; SR (mdr), + 2 μM verapamil, 5 min incubation, argon laser 1 min, 3 days culture): 600 nM | IC50 ([2]; SR (mdr), no verapamil, 5 min incubation, argon laser 1 min, 3 days culture): 4750 nM | 50% growth inhibition concentration in SR relative to wild-type (HD34K) concentration [2]: 10 times | Inhibitory concentrations SR versus wild-type HD34K ([2]; with 1 μM verapamil): no longer differ significantly | Inhibitory concentrations SR versus wild-type HD34K ([2]; with 2 μM verapamil): identical | IC50 ([3]; + 1 μM verapamil, argon laser 1 min): 150 nM | IC50 [3, 5]: 160 nM | 50% inhibitory concentration (cell growth) ([4]; + 1 μM verapamil): slightly less | IC50 ([4]; + 1 μM verapamil): 330 nM | IC50 ([4]; no verapamil, listed as napavin): ~400 nM | IC50 ([4]; no verapamil): 430 nM

COc1ccc(CCN(C)CCCC(C#N)(c2ccc(OC)c(OC)c2)C(C)C)cc1OC (stereo not shown) [VPM, verapamil]
Influence of verapamil on concentration required for 50% growth suppression ([3]; KB cells, vinblastin and napavin): no influence

CC[C@]1(O)C[C@@H]2CN(CCc3c([nH]c4ccccc34)[C@@](C(=O)OC)(c3cc4c(cc3OC)N(C)[C@H]3[C@@](O)(C(=O)OC)[C@H](OC(C)=O)[C@]5(CC)C=CCN6CC[C@]43[C@@H]65)C2)C1 [VLB, vinblastin, reference compound]
IC50 ([1]; Homo sapiens): 27000 nM | IC50 ([2]; Mus musculus): 7000 nM | 50% growth inhibition concentration in SR relative to wild-type (HD34K) concentration [2]: about 10 times | IC50 ([3]; Homo sapiens, KB, + 1 μM verapamil, argon laser 1 min): 180 nM | IC50 ([3]; Homo sapiens, KB, no verapamil, argon laser 457.8 nm 1 min): 100 to 200 nM | IC50 [3, 5]: 160 nM | 50% inhibitory concentration (cell growth) ([4]; + 1 μM verapamil): insignificantly higher | IC50 ([4]; Mus musculus, + 1 μM verapamil): 750 nM | IC50 ([4]; Mus musculus, no verapamil): 660 nM
